According to patent US9115166B2, “Rebaudioside A derivative products and methods for making” (The Coca-Cola Company, priority 2008, dated 2015):
Marks after values point to notes of the source that are not given here.

How the values were obtained:
[1] = Sweetness intensity of a water sample of derivative product compared with a water sample of sucrose (Example 4); type: in vivo; conditions: for Sweetness Intensity of Derivative Product (as compared to equivalent amount of sucrose): in water, amount of sample by weight: 1 (II) 3.6 %, 2 (IV) 1.1 %, 3 (III) 9.7 %, 4 (V) 6 %
Description: The sweetness intensity of the foregoing rebaudioside A derivative products was analyzed by comparing the sweetness intensity of a water sample having a particular amount of sucrose with a second water sample having an identical amount of a rebaudioside A derivative product.

[2] = Quality of sweetness: sensory attributes scored on a 15-point unstructured line scale; type: in vivo; design: key to Stale Flavor / Metallic Flavor / Mouth Numbing / Mouthburn / Stale Aftertaste / Metallic Aftertaste / Overall Aroma / Sweet Aromatic Aroma / Stale Aroma: scores on a 15-point unstructured line scale; conditions: for Metallic Aftertaste / Metallic Flavor / Mouth Numbing / Mouthburn / Stale Flavor / Overall Aroma / Stale Aftertaste / Stale Aroma / Sweet Aromatic Aroma / Astringency / Bitterness / Bitterness Aftertaste / Black Licorice Aftertaste / Black Licorice Flavor / Cooling / Overall Aftertaste / Overall Flavor / Sweet Aromatic Aftertaste / Sweet Aromatic Flavor / Sweetness / Sweetness Aftertaste: mean score, 15-point line scale, two replications, room temperature; for Overall Aroma / Stale Aftertaste / Stale Aroma / Sweet Aromatic Aroma: more than 50% of responses zero; for Astringency / Bitterness / Bitterness Aftertaste / Black Licorice Aftertaste / Black Licorice Flavor / Cooling / Overall Aftertaste / Overall Flavor / Sweet Aromatic Aftertaste / Sweet Aromatic Flavor / Sweetness / Sweetness Aftertaste: same superscript letter = not significantly different (95%); for characteristics which were not significantly different from sucrose (number): Fisher's LSD 5%, 95% confidence level
Description: The quality of sweetness of the rebaudioside A derivative products 1 (II), 2 (IV), 3 (III), and 4 (V) also was evaluated and compared to that of rebaudioside A, rebaudioside B, rebaudioside F, and sucrose at room temperature. For each attribute, the sweeteners received a score based on a 15-point unstructured line scale. […] A multiple comparison test, Fisher's LSD 5%, aided in the comparative analysis of the scores.

[3] = Sweetness potency of derivative products compared to sucrose at iso-sweetness levels (Example 1); conditions: in vivo
Source text: These rebaudioside A derivative products were characterized as having an intense sweetening potency. […] Thus, the rebaudioside A derivative products are suitable for use as sweeteners for sweetenable compositions.

With `CC1(C(=O)OC2OC(CO)C(O)C(O)C2O)CCCC2(C)C3CCC4(OC5OC(CO)C(O)C(OC6OC(CO)C(O)C(O)C6O)C5OC5OC(CO)C(O)C(O)C5O)CC3(CCC12)CC4(C)O` [Derivative Product 1 (II), 13-[(2-O-β-D-glucopyranosyl-3-O-β-D-glucopyranosyl-β-D-glucopyranosyl)oxy]-16-hydroxy kauran-18-oic acid β-D-glucopyranosyl ester] the “Sweetness Intensity of Derivative Product (as compared to equivalent amount of sucrose)” value [1] was 30, the “sweetness intensity, times that of sucrose” value ([1]; water solution vs same weight percentage of sucrose, 3.6 weight percent for 1 (II)) was “at least 30 times” and the “Metallic Aftertaste” value [2] was 0.67. For the same compound, the “Metallic Flavor” value [2] was 0.71, the “Mouth Numbing” value [2] was 0.38 and the Mouthburn [2] was 1.11. The “Stale Flavor” value [2] was 1.01, the “Overall Aroma” value [2] was 0.17 and the “Stale Aftertaste” value [2] was 0.56. The “Stale Aroma” value [2] was 0.10, the “Sweet Aromatic Aroma” value [2] was 0.04 and the Astringency [2] was 2.38^c. For the same compound, the Bitterness [2] was 2.28^bcd, the “Bitterness Aftertaste” value [2] was 1.32^cd and the “Black Licorice Aftertaste” value [2] was 0.00^c. For the same compound, the “Black Licorice Flavor” value [2] was 0.00^d, the Cooling [2] was 0.29^bc and the “Overall Aftertaste” value [2] was 2.18^d. For the same compound, the “Overall Flavor” value [2] was 3.14^c, the “Sweet Aromatic Aftertaste” value [2] was 0.09^d and the “Sweet Aromatic Flavor” value [2] was 0.06^c. For the same compound, the Sweetness [2] was 1.54^d and the “Sweetness Aftertaste” value [2] was 0.70^d.

For `CC1=CC23CCC4C(C)(C(=O)OC5OC(CO)C(O)C(O)C5O)CCCC4(C)C2CCC1(OC1OC(CO)C(O)C(OC2OC(CO)C(O)C(O)C2O)C1OC1OC(CO)C(O)C(O)C1O)C3` [Derivative Product 2 (IV), 13-[(2-O-β-D-glucopyranosyl-3-O-β-D-glucopyranosyl-β-D-glucopyranosyl)oxy]kaur-15-en-18-oic acid β-D-glucopyranosyl ester], the “Sweetness Intensity of Derivative Product (as compared to equivalent amount of sucrose)” value [1] was 20, the “characteristics which were not significantly different from sucrose (number)” value [2] was 8 and the “overall flavor and sweetness relative to sucrose” value ([2]; in vivo) was “comparable to sucrose”. For the same compound, the “Metallic Aftertaste” value [2] was 0.88, the “Metallic Flavor” value [2] was 0.82 and the “Mouth Numbing” value [2] was 0.97. The Mouthburn [2] was 1.45, the “Stale Flavor” value [2] was 1.21 and the “Overall Aroma” value [2] was 0.09. The “Stale Aftertaste” value [2] was 0.74, the “Stale Aroma” value [2] was 0.06 and the “Sweet Aromatic Aroma” value [2] was 0.00. For the same compound, the Astringency [2] was 2.90^ab, the Bitterness [2] was 2.86^ab and the “Bitterness Aftertaste” value [2] was 1.82^ab. For the same compound, the “Black Licorice Aftertaste” value [2] was 0.00^c, the “Black Licorice Flavor” value [2] was 0.07^d and the Cooling [2] was 0.12^c. The “Overall Aftertaste” value [2] was 2.35^d, the “Overall Flavor” value [2] was 3.58^c and the “Sweet Aromatic Aftertaste” value [2] was 0.20^cd. The “Sweet Aromatic Flavor” value [2] was 0.19^bc, the Sweetness [2] was 1.14^d and the “Sweetness Aftertaste” value [2] was 0.41^d.

With `CC1(C(=O)O)CCCC2(C)C3CCC4(OC5OC(CO)C(O)C(OC6OC(CO)C(O)C(O)C6O)C5OC5OC(CO)C(O)C(O)C5O)CC3(CCC12)CC4(C)O` [Derivative Product 3 (III), 13-[(2-O-β-D-glucopyranosyl-3-O-β-D-glucopyranosyl-β-D-glucopyranosyl)oxy]-16-hydroxy kauran-18-oic acid] the taste quality [3] was “sweet clean taste similar to sugar”, the “Sweetness Intensity of Derivative Product (as compared to equivalent amount of sucrose)” value [1] was 190 and the “Metallic Aftertaste” value [2] was 0.83. For the same compound, the “Metallic Flavor” value [2] was 1.02, the “Mouth Numbing” value [2] was 1.09 and the Mouthburn [2] was 1.15. The “Stale Flavor” value [2] was 0.63, the “Overall Aroma” value [2] was 0.09 and the “Stale Aftertaste” value [2] was 0.41. For the same compound, the “Stale Aroma” value [2] was 0.00, the “Sweet Aromatic Aroma” value [2] was 0.08 and the Astringency [2] was 3.27^a. For the same compound, the Bitterness [2] was 2.90^ab, the “Bitterness Aftertaste” value [2] was 1.75^abc and the “Black Licorice Aftertaste” value [2] was 1.37^a. For the same compound, the “Black Licorice Flavor” value [2] was 1.84^ab, the Cooling [2] was 0.57^b and the “Overall Aftertaste” value [2] was 5.72^ab. The “Overall Flavor” value [2] was 10.02^a, the “Sweet Aromatic Aftertaste” value [2] was 0.68^abc and the “Sweet Aromatic Flavor” value [2] was 0.77^ab. The Sweetness [2] was 9.73^a and the “Sweetness Aftertaste” value [2] was 5.38^ab.

In the case of `CC1=CC23CCC4C(C)(C(=O)O)CCCC4(C)C2CCC1(OC1OC(CO)C(O)C(OC2OC(CO)C(O)C(O)C2O)C1OC1OC(CO)C(O)C(O)C1O)C3` [Derivative Product 4 (V), 13-[(2-O-β-D-glucopyranosyl-3-O-β-D-glucopyranosyl-β-D-glucopyranosyl)oxy]kaur-15-en-18-oic acid], the taste quality [3] is reported as “sweet clean taste similar to sugar”, the “Sweetness Intensity of Derivative Product (as compared to equivalent amount of sucrose)” value [1] is reported as 120 and the “characteristics which were not significantly different from sucrose (number)” value [2] is reported as 8. For the same compound, the “Metallic Aftertaste” value [2] was 0.63, the “Metallic Flavor” value [2] was 0.87 and the “Mouth Numbing” value [2] was 0.90. The Mouthburn [2] was 1.23, the “Stale Flavor” value [2] was 0.77 and the “Overall Aroma” value [2] was 0.19. The “Stale Aftertaste” value [2] was 0.47, the “Stale Aroma” value [2] was 0.09 and the “Sweet Aromatic Aroma” value [2] was 0.00. The Astringency [2] was 3.01^ab, the Bitterness [2] was 2.08^cde and the “Bitterness Aftertaste” value [2] was 1.38^bcd. The “Black Licorice Aftertaste” value [2] was 1.25^a, the “Black Licorice Flavor” value [2] was 1.40^bc and the Cooling [2] was 0.70^ab. The “Overall Aftertaste” value [2] was 5.24^b, the “Overall Flavor” value [2] was 6.44^b and the “Sweet Aromatic Aftertaste” value [2] was 0.83^ab. For the same compound, the “Sweet Aromatic Flavor” value [2] was 0.75^ab, the Sweetness [2] was 6.04^b and the “Sweetness Aftertaste” value [2] was 4.85^b.

In the case of `C=C1C[C@@]23CC[C@H]4[C@@](C)(CCC[C@@]4(C)C(=O)OC4OC(CO)C(O)C(O)C4O)[C@@H]2CC[C@]1(OC1OC(CO)C(O)C(OC2OC(CO)C(O)C(O)C2O)C1OC1OC(CO)C(O)C(O)C1O)C3` (stereo partly shown) [Reb. A, Rebaudioside A], the “Metallic Aftertaste” value [2] is reported as 0.80, the “Metallic Flavor” value [2] is reported as 0.97 and the “Mouth Numbing” value [2] is reported as 0.76. For the same compound, the Mouthburn [2] was 1.29, the “Stale Flavor” value [2] was 0.89 and the “Overall Aroma” value [2] was 0.16. For the same compound, the “Stale Aftertaste” value [2] was 0.48, the “Stale Aroma” value [2] was 0.00 and the “Sweet Aromatic Aroma” value [2] was 0.14. The Astringency [2] was 3.14^ab, the Bitterness [2] was 3.43^a and the “Bitterness Aftertaste” value [2] was 2.21^a. For the same compound, the “Black Licorice Aftertaste” value [2] was 1.47^a, the “Black Licorice Flavor” value [2] was 2.31^a and the Cooling [2] was 1.10^a. For the same compound, the “Overall Aftertaste” value [2] was 6.34^a, the “Overall Flavor” value [2] was 9.88^a and the “Sweet Aromatic Aftertaste” value [2] was 0.50^bcd. The “Sweet Aromatic Flavor” value [2] was 0.71^ab, the Sweetness [2] was 9.59^a and the “Sweetness Aftertaste” value [2] was 5.91^a.

With `OC[C@H]1O[C@@](CO)(O[C@H]2O[C@H](CO)[C@@H](O)[C@H](O)[C@H]2O)[C@@H](O)[C@@H]1O` [Sucrose, sucrose, reference compound] the “Metallic Aftertaste” value [2] was 0.67, the “Metallic Flavor” value [2] was 1.04 and the “Mouth Numbing” value [2] was 0.57. The Mouthburn [2] was 1.06, the “Stale Flavor” value [2] was 0.50 and the “Overall Aroma” value [2] was 0.40. For the same compound, the “Stale Aftertaste” value [2] was 0.58, the “Stale Aroma” value [2] was 0.11 and the “Sweet Aromatic Aroma” value [2] was 0.24. For the same compound, the Astringency [2] was 3.03^ab, the Bitterness [2] was 1.47^e and the “Bitterness Aftertaste” value [2] was 0.97^d. For the same compound, the “Black Licorice Aftertaste” value [2] was 0.26^c, the “Black Licorice Flavor” value [2] was 0.13^d and the Cooling [2] was 0.38^bc. The “Overall Aftertaste” value [2] was 5.05^b, the “Overall Flavor” value [2] was 10.73^a and the “Sweet Aromatic Aftertaste” value [2] was 1.01^a. The “Sweet Aromatic Flavor” value [2] was 1.12^a, the Sweetness [2] was 10.45^a and the “Sweetness Aftertaste” value [2] was 4.76^b.

For “rebaudioside B [Reb. B, reference compound]”, the “Metallic Aftertaste” value [2] was 0.47, the “Metallic Flavor” value [2] was 0.82 and the “Mouth Numbing” value [2] was 0.54. The Mouthburn [2] was 0.97, the “Stale Flavor” value [2] was 0.92 and the “Overall Aroma” value [2] was 0.28. The “Stale Aftertaste” value [2] was 0.63, the “Stale Aroma” value [2] was 0.26 and the “Sweet Aromatic Aroma” value [2] was 0.00. The Astringency [2] was 2.79^bc, the Bitterness [2] was 1.72^de and the “Bitterness Aftertaste” value [2] was 1.07^d. For the same compound, the “Black Licorice Aftertaste” value [2] was 0.80^b, the “Black Licorice Flavor” value [2] was 0.89^c and the Cooling [2] was 0.57^b. For the same compound, the “Overall Aftertaste” value [2] was 3.54^c, the “Overall Flavor” value [2] was 4.20^c and the “Sweet Aromatic Aftertaste” value [2] was 0.46^bcd. The “Sweet Aromatic Flavor” value [2] was 0.54^abc, the Sweetness [2] was 3.55^c and the “Sweetness Aftertaste” value [2] was 3.11^c.

With “rebaudioside F [Reb. F, reference compound]” the “Metallic Aftertaste” value [2] was 0.88, the “Metallic Flavor” value [2] was 1.13 and the “Mouth Numbing” value [2] was 0.98. The Mouthburn [2] was 1.35, the “Stale Flavor” value [2] was 1.14 and the “Overall Aroma” value [2] was 0.29. For the same compound, the “Stale Aftertaste” value [2] was 0.81, the “Stale Aroma” value [2] was 0.00 and the “Sweet Aromatic Aroma” value [2] was 0.18. For the same compound, the Astringency [2] was 3.28^a, the Bitterness [2] was 2.64^bc and the “Bitterness Aftertaste” value [2] was 1.70^bc. The “Black Licorice Aftertaste” value [2] was 0.75^b, the “Black Licorice Flavor” value [2] was 0.88^c and the Cooling [2] was 0.57^b. For the same compound, the “Overall Aftertaste” value [2] was 3.89^c, the “Overall Flavor” value [2] was 5.38^b and the “Sweet Aromatic Aftertaste” value [2] was 0.46^bcd. The “Sweet Aromatic Flavor” value [2] was 0.59^abc, the Sweetness [2] was 4.98^b and the “Sweetness Aftertaste” value [2] was 3.34^c.
